Assay results published in US5399697A, “N,N',N'-trisubstituted-5-bisaminomethylene-1,3-dioxane-4,6-dione inhibitors of acyl-CoA:cholesterol-acyl transferase” (American Home Products Corporation, priority 1993, dated 1995).
Where two headings read alike, the source gives them in different places.

Columns and labels:
[1] = test system: acyl-coenzyme A: cholesterol acyltransferase; test: Inhibition of ACAT / intracellular cholesterol esterification in vitro (procedure of Ross et al.); format: cell-based; details: for IC50: read-out: IC50
plasma cholesterol = test: Plasma cholesterol in cholesterol-cholic acid fed rats; format: in vivo; details: Rattus norvegicus, oral gavage; for ED50: fifty percent reduction of plasma cholesterol
Description: In addition, representative compounds were studied in vivo in cholesterol-cholic acid fed rats to determine the percent decrease of cholesterol in their plasma. This study involves rats which are, prior to testing, trained for one week to eat over a four hour time period each day. Upon initiation of the experiment, the rats diet is supplemented with 1.0 percent cholesterol and 0.25 percent cholic acid. The rats are dosed with the test compound by oral gavage just prior to adjust following the four hour feeding period. This is repeated for four days. On the fifth day, the rats are sacrificed and the total plasma cholesterol content is determined. The percent decrease in elevated plasma cholesterol levels is calculated in comparison with […].

cholesterol absorption = test: 14C-cholesterol absorption in normal rats (oral gavage); format: in vivo; details: Rattus norvegicus; for ED50: normal fed rats
Description: Representative compounds were further tested in vivo to establish the percent inhibition of cholesterol absorption. In this study, normal rats were dosed (oral gavage) with ^14 C-cholesterol plus the test compound. Blood samples taken at six hours and/or intermittently up to twenty-four hours were analyzed and the percent inhibition of cholesterol absorption was calculated.

[2] = normal rats, read-out: % Inhibition of Absorption
[3] = 96 h, four days, read-out: % Decrease in Plasma Cholesterol

Row | Compound | % Inhibition ([1]; 50 μM) | IC50 [1] | ED50 (plasma cholesterol) | ED50 (cholesterol absorption) | change in vivo at 200 mg/kg (cholesterol absorption; [2]) | % Inhibition ([1]; 25 μM) | change in vivo at 100 mg/kg (plasma cholesterol; [3]) | change in vivo at 100 mg/kg (plasma cholesterol; 96 h, heading: % Decrease in Plasma Cholesterol, four days) | change in vivo at 10 mg/kg (cholesterol absorption; [2]) | change in vivo at 40 mg/kg (plasma cholesterol; [3]) | change in vivo at 60 mg/kg (plasma cholesterol; 96 h, heading: % Decrease in Plasma Cholesterol, four days, 60 mg/kg) | change in vivo at 20 mg/kg (cholesterol absorption; normal rats, 20 mg/kg, read-out: % Inhibition of Absorption) | change in vivo at 20 mg/kg (plasma cholesterol; 96 h, four days, 20 mg/kg, read-out: % Decrease in Plasma Cholesterol) | change in vivo at 50 mg/kg (cholesterol absorption; normal rats, 50 mg/kg, read-out: % Inhibition of Absorption)
1 | CCCCCCCN(Cc1ccc(C(C)(C)C)cc1)C(Nc1ccc(OC)cc1OC)=C1C(=O)OC(C)(C)OC1=O [Compound 2] | 85% | 900 nM | 99 mg/kg | 44 mg/kg | -88% |  |  |  |  |  |  |  |  | 
2 | CCCCCC(C)N(Cc1ccc(C(C)(C)C)cc1)C(Nc1ccc(OC)cc1OC)=C1C(=O)OC(C)(C)OC1=O (centres unmarked) [Compound 4, 5-[[(2,4-Dimethoxophenyl)amino][[[4-(1,1-dimethylethyl)phenyl]methyl](1-methylhexyl)amino]-methylene]-2,2-dimethyl-1,3-dioxane-4,6-dione] |  | 260 nM | 64 mg/kg | 10 mg/kg | -93% | 99% | -98% |  |  |  |  |  |  | 
3 | CCCCCC(C)N(Cc1ccc(CC(C)(C)C)cc1)C(Nc1ccc(OC)cc1OC)=C1C(=O)OC(C)(C)OC1=O (centres unmarked) [Compound 7, 5-[[(2,4-Dimethoxyphenyl)amino][[[4-(2,2-dimethylpropyl)phenyl]methyl](1-methylhexyl)amino]methylene]-2,2-dimethyl-1,3-dioxane-4,6-dione] |  | 830 nM | 6 mg/kg | 3 mg/kg |  | 99% |  | -100% |  |  |  |  |  | 
4 | CCCCCC(C)N(Cc1ccc(CC(C)(C)C)cc1)C(Nc1ccc(N(C)C)cc1C)=C1C(=O)OC(C)(C)OC1=O (centres unmarked) [Compound 47] |  | 260 nM | 16 mg/kg | 3 mg/kg |  | 98% |  |  | -83% |  |  |  |  | 
5 | CCCCCc1ccc(CN(C(Nc2ccc(N(C)C)cc2)=C2C(=O)OC(C)(C)OC2=O)C(C)CCCCC)cc1 (centres unmarked) [Compound 41, 5-[[[4-(Dimethylamino)phenyl]amino][(1-methylhexyl)[(4-pentylphenyl)methyl]amino]-methylene]-2,2-dimethyl-1,3-dioxane-4,6-dione] |  | 260 nM | 7 mg/kg | 3 mg/kg |  | 98% |  |  |  | -89% |  |  |  | 
6 | CCCCCC(C)N(Cc1ccc(CC(C)C)cc1)C(Nc1ccc(OC)cc1OC)=C1C(=O)OC(C)(C)OC1=O (centres unmarked) [Compound 32, 5-[[(2,4-Dimethoxyphenyl)amino][(1-methylhexyl)[[4-(2-methylpropyl)phenyl]methyl]amino]-methylene]-2,2-dimethyl-1,3-dioxane-4,6-dione] |  | 240 nM | 17 mg/kg | 4 mg/kg |  | 98% |  |  |  |  | -97% | -79% |  | 
7 | CCCCCCOc1ccc(NC(=C2C(=O)OC(C)(C)OC2=O)N(Cc2ccc(CC(C)C)cc2)C(C)CCCCC)cc1 (centres unmarked) [Compound 43, 5-[[[4-(Hexyloxy)phenyl]amino][(1-methylhexyl)[[4-(2methylpropyl)phenyl]methyl]amino]-methylene]-2,2-dimethyl-1,3-dioxane-4,6,-dione] |  | 410 nM |  |  |  | 97% |  |  | -52% | -67% |  |  |  | 
8 | CCCCCc1ccc(CN(C(Nc2ccc(OC)cc2OC)=C2C(=O)OC(C)(C)OC2=O)C(C)CCCCC)cc1 (centres unmarked) [Compound 40] |  | 360 nM | 7 mg/kg | 2 mg/kg |  | 99% |  |  | -69% | -78% |  |  |  | 
9 | CCCCCC(C)N(Cc1ccc(CC(C)C)cc1)C(Nc1ccc(N(C)C)cc1C)=C1C(=O)OC(C)(C)OC1=O (centres unmarked) [Compound 46] |  | 350 nM | 8 mg/kg | 2 mg/kg |  | 98% |  |  | -82% |  |  |  | -70% | 
10 | CCCCCC(C)N(Cc1ccc(CC(C)(C)C)cc1)C(Nc1ccc(N(C)C)cc1)=C1C(=O)OC(C)(C)OC1=O (centres unmarked) [Compound 37] |  | 690 nM | 18 mg/kg |  |  | 99% |  |  |  | -72% |  |  |  | -85%
